Measured values from the supplement of paper PMC8671470.
± gives the standard deviation of the averaged measurements.

What was measured:
Details in all cases: 72 h
HL-60 [1] = test: area under dose-response curve (viability, 1 nM-10 uM) (fraction (0-1)); higher = more sensitive
In short: (§1)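 HL-60 cells in RPMI 1640 with 10% FBS were rescreened against the full library on 384-well plates at five tenfold concentrations, 1–10,000 nM, in duplicate. Each screen was run with DMSO or 100 nM of one of three metabolic inhibitors, for 72 h at 37 °C, 5% CO2. Viability was read by CellTiter-Glo and normalised to DMSO and 10 μM proteasome-inhibitor wells. Where given, area under the curve came from four-parameter log-logistic fits (drc, PharmacoGx).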

MV4-11 [2] = test system: MV4-11
In short: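 The IC50 was derived from log-logistic dose–response fitting. Each of fifteen myeloid leukaemia cell lines, seeded in RPMI 1640 within its linear growth range, was exposed in 384-well plates to five tenfold doses (1 to 10,000 nM) in duplicate for 72 h at 37 °C and 5% CO2. Luminescent ATP viability readings were normalised to vehicle and to a positive control at 10 µM before four-parameter curve fitting.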

HL-60 [3] = test: cell viability (% survival relative to DMSO control); higher = less cytotoxic
In short: as §1

HEL = test: cell viability (% survival relative to DMSO control, bortezomib = 0%); higher = less cytotoxic
In short: (§2)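 Reported values are percent survival from duplicate wells, averaged. Fifteen myeloid leukaemia cell lines were treated in 384-well plates with compounds at 1, 10, 100, 1000 or 10000 nM for 72 h at 37 °C in 5% CO2. Signals from CellTiter-Glo luminescence were scaled with vehicle as 100% and a 10 µM positive control as 0%.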

MV4-11 [4] = test: as above
In short: as §2

BV-173 = test: as above
In short: as §2

MOLM-13 = test: as above
In short: as §2

KU-812 = test: as above
In short: as §2

NOMO-1 = test: as above
In short: as §2

KG-1 = test: as above
In short: as §2

HL-60 [5] = test: as above
In short: as §2

KCL-22 = test: as above
In short: as §2

LAMA-84 = test: as above
In short: as §2

THP-1 = test: as above
In short: as §2

ML-2 = test: as above
In short: as §2

SHI-1 = test: as above
In short: as §2

Mono-Mac-6 = test: as above
In short: as §2

K-562 = test: as above
In short: as §2

COc1ccc(-c2ccccc2)cc1NS(=O)(=O)c1cc(Cl)cc(Cl)c1O
Details | area under dose-response curve, co-treatment: AZD3965 100 nM | area under dose-response curve, co-treatment: DMSO vehicle | area under dose-response curve, co-treatment: GSK2194069 100 nM | area under dose-response curve, co-treatment: pictilisib 100 nM | cell viability, 1 nM [%] | cell viability, 10 nM [%] | cell viability, 100 nM [%] | cell viability, 1000 nM [%] | cell viability, 10000 nM [%]
BV-173 | – | – | – | – | 98.9 | 90 | 119 | 87.1 | 94.6
HEL | – | – | – | – | 106 | 87.4 | 115 | 74 | 95.3
HL-60 [1] | < 0.0301 | < 0.0301 | < 0.0301 | < 0.0301 | – | – | – | – | –
HL-60 [5] | – | – | – | – | 88.3 | 77.6 | 100 | 25.6 | 95.9
K-562 | – | – | – | – | 86.8 | 105 | 126 | 87.9 | 86.9
KCL-22 | – | – | – | – | 90 | 92.8 | 108 | 93.7 | 97.7
KG-1 | – | – | – | – | 98.1 | 96.4 | 108 | 83.8 | 99.2
KU-812 | – | – | – | – | 98.2 | 84.4 | 105 | 95.6 | 104
LAMA-84 | – | – | – | – | 102 | 95.1 | 113 | 103 | 99
ML-2 | – | – | – | – | 99.8 | 102 | 102 | 84.5 | 97.7
MOLM-13 | – | – | – | – | 101 | 117 | 113 | 81 | 111
MV4-11 [4] | – | – | – | – | 98.8 | 96.1 | 117 | 86.3 | 98.3
Mono-Mac-6 | – | – | – | – | 102 | 86.8 | 97.8 | 90.2 | 90.7
NOMO-1 | – | – | – | – | 102 | 96 | 107 | 92.7 | 99
SHI-1 | – | – | – | – | 95.9 | 101 | 105 | 82.2 | 113
THP-1 | – | – | – | – | 101 | 98.4 | 101 | 85.5 | 99.9

Details | IC50 (cell viability) [µM]
MV4-11 [2] | > 10

cell viability [%], HL-60 [3]
Details | 0.001 µM | 0.01 µM | 0.1 µM | 1 µM | 10 µM
co-treatment: AZD3965 100 nM | 99.4 ± 2.4 | 102 ± 1.4 | 99 ± 1.8 | 96 ± 2.2 | 99.06 ± 0.47
co-treatment: DMSO vehicle | 96.3 ± 2.8 | 104.5 ± 0.32 | 109 ± 14 | 103 ± 3.8 | 99 ± 3.5
co-treatment: GSK2194069 100 nM | 93.5 ± 2.1 | 99 ± 2.9 | 109 ± 23 | 92.7 ± 2.3 | 98.5 ± 3.8
co-treatment: pictilisib 100 nM | 103 ± 10 | 104 ± 4.6 | 114 ± 19 | 100 ± 4.6 | 93.2 ± 18

O=C(O)CCCCC(CCSCc1ccccc1)SCc1ccccc1 (stereo not given) [CPI-613]
Details | area under dose-response curve, co-treatment: AZD3965 100 nM | area under dose-response curve, co-treatment: DMSO vehicle | area under dose-response curve, co-treatment: GSK2194069 100 nM | area under dose-response curve, co-treatment: pictilisib 100 nM | cell viability, 1 nM [%] | cell viability, 10 nM [%] | cell viability, 100 nM [%] | cell viability, 1000 nM [%] | cell viability, 10000 nM [%]
BV-173 | – | – | – | – | 89 | 97.3 | 91.1 | 94.4 | 93.8
HEL | – | – | – | – | 109 | 91 | 106 | 103 | 73.8
HL-60 [1] | < 0.0301 | < 0.0301 | < 0.0301 | < 0.0301 | – | – | – | – | –
HL-60 [5] | – | – | – | – | 107 | 111 | 110 | 87.9 | 101
K-562 | – | – | – | – | 94 | 90.4 | 102 | 89.2 | 107
KCL-22 | – | – | – | – | 110 | 108 | 105 | 115 | 97.2
KG-1 | – | – | – | – | 92.4 | 99.7 | 103 | 96.5 | 93.6
KU-812 | – | – | – | – | 98.9 | 94.3 | 99.6 | 105 | 89.7
LAMA-84 | – | – | – | – | 106 | 98.3 | 96.5 | 96.8 | 97.5
ML-2 | – | – | – | – | 89.7 | 94.3 | 103 | 98.2 | 95.8
MOLM-13 | – | – | – | – | 93.6 | 99 | 98.5 | 75.5 | 94.5
MV4-11 [4] | – | – | – | – | 107 | 90.5 | 96.6 | 93 | 105
Mono-Mac-6 | – | – | – | – | 92.8 | 86.9 | 96.3 | 94.2 | 96.3
NOMO-1 | – | – | – | – | 101 | 95.2 | 98.2 | 100 | 97.2
SHI-1 | – | – | – | – | 89.9 | 110 | 108 | 95.8 | 107
THP-1 | – | – | – | – | 102 | 90.1 | 96.2 | 93.7 | 97.3

Details | IC50 (cell viability) [µM]
MV4-11 [2] | > 10

cell viability [%], HL-60 [3]
Details | 0.001 µM | 0.01 µM | 0.1 µM | 1 µM | 10 µM
co-treatment: AZD3965 100 nM | 102 ± 4.3 | 97.3 ± 4.7 | 98.6 ± 4.9 | 104 ± 2.1 | 105 ± 3.5
co-treatment: DMSO vehicle | 98.6 ± 2.1 | 101 ± 3.1 | 95.2 ± 9 | 103 ± 9.6 | 108 ± 6.2
co-treatment: GSK2194069 100 nM | 97.55 ± 0.73 | 101 ± 2.7 | 89.4 ± 20 | 104 ± 11 | 107.3 ± 0.4
co-treatment: pictilisib 100 nM | 105 ± 4.5 | 98.8 ± 8.4 | 88.5 ± 24 | 103 ± 13 | 107 ± 2.6
